Our source for the EC50 values is patent publication US10604509B2, “Nrf2 regulators” (GlaxoSmithKline Intellectual Property Development Limited, priority 2015, dated 2020).

Where a name gives a salt, the structure may show the parent alone.

The test system of one experiment is NQO1 specific enzyme activity in BEAS-2B cells. The experiment can be described thus: BEAS-2B NQO1 MTT assay. It is filed as cell-based. The conditions noted are these: BEAS-2B cells, 48 hours with compound, MTT readout; read-out: EC50 of NQO1 specific activity induction. Summed up:
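BEAS-2B cells treated with compound 48 h at 37° C, 5% CO2, then lysed; NQO1 activity in lysate measured kinetically by MTT cocktail at Absorbance 570 nm over 30 min. EC50 for induction from Delta OD/min versus log concentration, 3-parameter fit; Cell Titer Glo run on lysate aliquot.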
With `CC[C@@H]1CN(Cc2cc([C@H](c3ccc4c(nnn4CC)c3C)[C@H](C)C(=O)O)ccc2C)Cc2ccccc2O1` [Example 199, (2S,3R)-3-(3-(((R)-2-Ethyl-2,3-dihydrobenzo[f][1,4]oxazepin-4(5H)-yl)methyl)-4-methylphenyl)-3-(1-ethyl-4-methyl-1H-benzo[d][1,2,3]triazol-5-yl)-2-methylpropanoic acid], the EC50 was 10 to 100 nM.

Staying with this experiment, now noted: Homo sapiens, BEAS-2B, 48 h, BEAS-2B cells, 48 hours with compound, MTT readout; read-out: EC50 of NQO1 specific activity induction.
Take `CC[C@@H]1CN(Cc2cc([C@@H](c3ccc4c(nnn4CC)c3F)[C@@H](C)C(=O)O)ccc2C)Cc2cccc(F)c2O1` [Example 192, (2R,3S)-3-(1-Ethyl-4-fluoro-1H-benzo[d][1,2,3]triazol-5-yl)-3-(3-(((R)-2-ethyl-9-fluoro-2,3-dihydrobenzo[f][1,4]oxazepin-4(5H)-yl)methyl)-4-methylphenyl)-2-methylpropanoic acid]: the EC50 was in the range of 1 to 10 nM.

For `CCn1nnc2c(F)c([C@H](c3ccc(C)c(CN4Cc5ccccc5OC(C)(C)C4)c3)[C@@H](C)C(=O)O)ccc21` [Example 193, (2R,3S)-3-(3-((2,2-Dimethyl-2,3-dihydro-benzo[f][1,4]oxazepin-4(5H)-yl)methyl)-4-methylphenyl)-3-(1-ethyl-4-fluoro-1H-benzo[d][1,2,3]triazol-5-yl)-2-methylpropanoic acid, Sodium salt], the EC50 was in the range of 1 to 10 nM.

In the case of `CCn1nnc2c(Cl)c([C@H](c3ccc(C)c(CN4Cc5cccnc5OC(C)(C)C4)c3)[C@@H](C)C(=O)O)ccc21` [Example 194, (2R,3S)-3-(4-Chloro-1-ethyl-1H-benzo[d][1,2,3]triazol-5-yl)-3-(3-((2,2-dimethyl-2,3-dihydropyrido[3,2-f][1,4]oxazepin-4(5H)-yl)methyl)-4-methylphenyl)-2-methylpropanoic acid], the EC50 fell in the range of 10 to 100 nM.

Consider `CCn1nnc2c(F)c([C@H](c3ccc(C)c(CN4Cc5cccnc5OC(C)(C)C4)c3)[C@@H](C)C(=O)O)ccc21` [Example 195, (2R,3S)-3-(3-((2,2-Dimethyl-2,3-dihydropyrldo[3,2-f][1,4]oxazepin-4(5H)-yl)methyl)-4-methylphenyl)-3-(1-ethyl-4-fluoro-1H-benzo[d][1,2,3]triazol-5-yl)-2-methylpropanoic acid], for which the concentration for a half-maximal effect (EC50) was in the range of 10 to 100 nM.

Take `CCn1nnc2c(C)c([C@H](c3ccc(C)c(CN4Cc5cnccc5OC(C)(C)C4)c3)[C@@H](C)C(=O)O)ccc21` [Example 196, (2R,3S)-3-(3-((2,2-Dimethyl-2,3-dihydropyrido[3,4-f][1,4]oxazepin-4(5H)-yl)methyl)-4-methylphenyl)-3-(1-ethyl-4-methyl-1H-benzo[d][1,2,3]triazol-5-yl)-2-methylpropanoic acid, Trifluoroacetic acid salt]: the EC50 fell in the range of 1 to 10 nM.

As to `CC[C@@H]1CN(Cc2cc([C@H](c3ccc4c(nnn4CC)c3C)[C@H](C)C(=O)O)ccc2C)Cc2cnccc2O1` [Example 197, (2S,3R)-3-(3-(((R)-2-Ethyl-2,3-dihydropyrido[3,4-f][1,4]oxazepin-4(5H)-yl)methyl)-4-methylphenyl)-3-(1-ethyl-4-methyl-1H-benzo[d][1,2,3]triazol-5-yl)-2-methylpropanoate, Sodium salt], the 50% effective concentration (EC50) is 10 to 100 nM.

Regarding `Cc1ccc([C@H](c2ccc3c(nnn3C)c2C)[C@H](C)C(=O)O)cc1CN1Cc2cnccc2OC(C)(C)C1` [Example 198, (2S,3R)-3-(1,4-Dimethyl-1H-benzo[d][1,2,3]triazol-5-yl)-3-(3-((2,2-dimethyl-2,3-dihydropyrido[3,4-f][1,4]oxazepin-4(5H)-yl)methyl)-4-methylphenyl)-2-methylpropanoic acid, 0.1 formic acid salt], the concentration giving a half-maximal response (EC50) fell in the range of 10 to 100 nM.

With `CCn1nnc2c(C)c([C@@H](c3ccc(C)c(CN4Cc5ccccc5OC(C)(C)C4)c3)[C@H](C)C(=O)O)ccc21` [Example 200, (2S,3R)-3-(3-((2,2-Dimethyl-2,3-dihydrobenzo[f][1,4]oxazepin-4(5H)-yl)methyl)-4-methylphenyl)-3-(1-ethyl-4-methyl-1H-benzo[d][1,2,3]triazol-5-yl)-2-methylpropanoic Acid, 2 Trifluoroacetic Acid Salt], the EC50 was 10 to 100 nM.

Consider `CCn1nnc2c(C)c([C@@H](c3ccc(C)c(Cn4ccnc4CN4CCCCC4)c3)[C@H](C)C(=O)O)ccc21` [Example 201, (2S,3R)-3-(1-Ethyl-4-methyl-1H-benzo[d][1,2,3]triazol-5-yl)-2-methyl-3-(4-methyl-3-((2-(piperidin-1-ylmethyl)-1H-imidazol-1-yl)methyl)phenyl)propanoic Acid], for which the half-maximal effective concentration (EC50) fell in the range of 100 to 1000 nM.

On to `Cc1ccc([C@@H](c2ccc3c(nnn3C)c2C)[C@@H](C)C(=O)O)cc1CN1Cc2cnccc2OC(C)(C)C1` [Example 203, (2R,3S)-3-(1,4-Dimethyl-1H-benzo[d][1,2,3]triazol-5-yl)-3-(3-((2,2-dimethyl-2,3-dihydropyrido[3,4-f][1,4]oxazepin-4(5H)-yl)methyl)-4-methylphenyl)-2-methylpropanoic Acid, 0.2 Formic Acid Salt], for which the concentration for a half-maximal effect (EC50) was 10 to 100 nM.

Regarding `CC[C@@H]1CN(Cc2cc([C@H](c3ccc4c(nnn4C)c3C)C(C)(C)C(=O)O)ccc2C)Cc2cnccc2O1` [Example 204, (R)-3-(1,4-Dimethyl-1H-benzo[d][1,2,3]triazol-5-yl)-3-(3-(((R)-2-ethyl-2,3-dihydropyrido[3,4-f][1,4]oxazepin-4(5H)-yl)methyl)-4-methylphenyl)-2,2-dimethylpropanoic Acid, 0.5 Ethanol], the EC50 lay within 100 to 1000 nM.

Consider `CC[C@@H]1CN(Cc2cc([C@@H](c3ccc4c(nnn4C)c3C)C(C)(C)C(=O)NS(C)(=O)=O)ccc2C)Cc2cnccc2O1` [Example 205, (S)-3-(1,4-Dimethyl-1H-benzo[d][1,2,3]triazol-5-yl)-3-(3-(((R)-2-ethyl-2,3-dihydropyrido[3,4-f][1,4]oxazepin-4(5H)-yl)methyl)-4-methylphenyl)-2,2-dimethyl-N-(methylsulfonyl)propanamide, Trifluoroacetic Acid Salt], for which the EC50 is 100 to 1000 nM.

Regarding `CCn1nnc2c(C)c([C@H](c3ccc(C)c(CN4Cc5ccccc5OC(C)(C)C4)c3)[C@@H](C)C(=O)O)ccc21` [Example 208, (2R,3S)-3-(3-((2,2-Dimethyl-2,3-dihydrobenzo[f][1,4]oxazepin-4(5H)-yl)methyl)-4-methylphenyl)-3-(1-ethyl-4-methyl-1H-benzo[d][1,2,3]triazol-5-yl)-2-methylpropanoic acid, 2 Trifluoroacetic Acid Salt], the half-maximal effective concentration (EC50) is 1 to 10 nM.

Regarding `CCn1nnc2c(C)c([C@H](c3ccc(C)c(CN4Cc5cnccc5OC(C)(C)C4)c3)[C@@H](C)C(=O)O)cc(Cl)c21` [Example 209, (2R,3S)-3-(7-Chloro-1-ethyl-4-methyl-1H-benzo[d][1,2,3]triazol-5-yl)-3-(3-((2,2-dimethyl-2,3-dihydropyrido[3,4-f][1,4]oxazepin-4(5H)-yl)methyl)-4-methylphenyl)-2-methylpropanoic Acid], the EC50 lay within 1 to 10 nM.

As to `CCn1nnc2c(C)c([C@H](c3ccc(C)c(Cn4ccnc4CN4CCCCC4)c3)[C@@H](C)C(=O)O)ccc21` [Example 210, (2R,3S)-3-(1-Ethyl-4-methyl-1H-benzo[d][1,2,3]triazol-5-yl)-2-methyl-3-(4-methyl-3-((2-(piperidin-1-ylmethyl)-1H-imidazol-1-yl)methyl)phenyl)propanoic Acid], the EC50 was 10 to 100 nM.

Take `Cc1ccc(C(c2ccc3c(nnn3C)c2C)C2(C(=O)O)CC2)cc1CN1Cc2cnccc2OC(C)(C)C1` (stereo not shown) [Example 211, 1-((1,4-Dimethyl-1H-benzo[d][1,2,3]triazol-5-yl)(3-((2,2-dimethyl-2,3-dihydropyrido[3,4-f][1,4]oxazepin-4(5H)-yl)methyl)-4-methylphenyl)methyl)cyclopropanecarboxylic acid, Trifluoroacetic Acid Salt]: the EC50 was 10 to 100 nM.

Regarding `CC[C@@H]1CN(Cc2nc(C(c3ccc4c(nnn4C)c3C)C(C)(C)C(=O)O)ccc2C)Cc2cnccc2O1` (stereo partly drawn) [Example 212, 3-(1,4-Dimethyl-1H-benzo[d][1,2,3]triazol-5-yl)-3-(6-(((R)-2-ethyl-2,3-dihydropyrido[3,4-f][1,4]oxazepin-4(5H)-yl)methyl)-5-methylpyridin-2-yl)-2,2-dimethylpropanoic Acid, Formic Acid Salt], the EC50 fell in the range of 10 to 100 nM.

`CC[C@@H]1CN(Cc2cc(C(c3ccc4c(nnn4C)c3C)C(C)(C)C(=O)O)cnc2C)Cc2cnccc2O1` (stereo partly drawn) [Example 213, 3-(1,4-Dimethyl-1H-benzo[d][1,2,3]triazol-5-yl)-3-(5-(((R)-2-ethyl-2,3-dihydropyrido[3,4-f][1,4]oxazepin-4(5H)-yl)methyl)-6-methylpyridin-3-yl)-2,2-dimethylpropanoic acid, Trifluoroacetic Acid Salt]: the EC50 is 100 to 1000 nM.

As for `Cc1ncc(C(c2ccc3c(nnn3C)c2C)C(C)(C)C(=O)O)cc1Cn1ccnc1CC1CCCCCC1` (stereo not shown) [Example 214, 3-(5-((2-(Cycloheptylmethyl)-1H-imidazol-1-yl)methyl)-6-methylpyridin-3-yl)-3-(1,4-dimethyl-1H-benzo[d][1,2,3]triazol-5-yl)-2,2-dimethylpropanoic Acid, Trifluoroacetic Acid Salt], the EC50 was 100 to 1000 nM.

Take `Cc1ccc([C@H](CC(=O)O)c2ccc3c(nnn3C)c2C)cc1CN1CCCC(Cn2cccn2)C1` (stereo partly drawn) [Example 215, (3S)-3-(3-((3-((1H-Pyrazol-1-yl)methyl)piperidin-1-yl)methyl)-4-methylphenyl)-3-(1,4-dimethyl-1H-benzo[d][1,2,3]triazol-5-yl)propanoic Acid]: the EC50 is 1000 to 10000 nM.

On to `CC[C@@H]1CN(Cc2cc(C(CCc3cn(CC)nn3)C(C)(C)C(=O)O)ccc2C)Cc2ncccc2O1` (stereo partly drawn) [Example 216, 5-(1-Ethyl-1H-1,2,3-triazol-4-yl)-3-(3-(((R)-2-ethyl-2,3-dihydropyrido[2,3-f][1,4]oxazepin-4(5H)-yl)methyl)-4-methylphenyl)-2,2-dimethylpentanoic Acid], for which the EC50 is 1 to 10 nM.

A word on the EC50: it is the concentration that produces a half-maximal response.
